Measurements published in patent US20220168268A1, “SMALL-MOLECULE INHIBITOR OF PD-1/PD-L1, PHARMACEUTICAL COMPOSITION THEREOF WITH PD-L1 ANTIBODY, AND APPLICATION OF SAME” (Guangzhou Maxinovel Pharmaceuticals Co., Ltd., priority 2019, published 2022).

Target: T1, PD-1/PD-L1 (Homo sapiens, UniProt Q9NZQ7)
T1 construct: unspecified kit tag (tag1 or tag2, recognised by the detection antibodies); purchased CisBio 64CUS000C-1
Experiment: Homogeneous Time-Resolved Fluorescence (HTRF) PD-1/PD-L1 binding assay
Settings: CisBio kit
Method: Homogenouse Time-Resolved Fluorescence (HTRF) binding assay was used to determine the binding activity of the compound of the present disclosure to PD-1/PD-L1.
The purchased kit (CisBio, #64CUS000C-1) contained the reagents required for experiments such as PD-1, PD-L1, anti-tagl-Eu, Anti-tag2-XL665, Dilute Buffer and Detection Buffer.
1. The compound was formulated to 10 concentrations with a three-fold concentration gradient with 100% DMSO.
2. The solution of the compound in DMSO was added to Dilute Buffer, and mixed evenly and then transferred to a 96-well plate.
3. PD-L1 was diluted with Dilute Buffer and added to the 96-well plate above.
4. PD-1 was diluted with Dilute Buffer, then added to the 96-well plate above and incubated at room temperature for 30 minutes.
5. One portion of anti-tag1-Eu and one portion of anti-tag2-XL665 were added to Detection Buffer, mixed evenly and transferred to the 96-well plate above.
6. The mixed solution in the 96-well plate were incubated at room temperature for 1 to 24 hours.
7. HTRF values were read by Envision.

T1 sequence (Q9NZQ7 19-238 limits assumed): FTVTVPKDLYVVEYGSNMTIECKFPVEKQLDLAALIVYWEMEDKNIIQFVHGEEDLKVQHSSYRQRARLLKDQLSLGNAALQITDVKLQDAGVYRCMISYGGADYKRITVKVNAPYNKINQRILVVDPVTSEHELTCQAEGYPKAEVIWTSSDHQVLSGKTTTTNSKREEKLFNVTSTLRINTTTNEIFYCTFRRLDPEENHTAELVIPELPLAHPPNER

SMILES	IC50
Cc1c(/C=C/c2cc(CNC(CO)C(=O)O)ccc2C(F)(F)F)cccc1-c1ccc2c(c1)OCCO2 (stereo not drawn) [Compound 1, (E)-2-(3-(3-(2,3-dihydrobenzo[b][1,4]dioxin-6-yl)-2-methylstyryl)-4-(trifluoromethyl)benzylamino)-3-hydroxypropanoic Acid]	14 nM
COc1ccc(-c2cccc(/C=C/c3cc(CNC(C)(CO)C(=O)O)ccc3C)c2C)cc1 (stereo not drawn) [Compound 2, (E)-2-((3-(2-(4′-methoxy-2-methylbiphenyl-3-yl)vinyl)-4-methylbenzyl)amino)-3-hydroxy-2-methylpropanoic Acid]	3100 nM
Cc1c(/C=C/c2cc(CNC(C)(CO)C(=O)O)ccc2C(F)(F)F)cccc1-c1cccc(F)c1 (stereo not drawn) [Compound 3, (E)-2-(3-(2-(3′-fluoro-2-methylbiphenyl-3-yl)vinyl)-4-(trifluoromethyl)benzylamino)-3-hydroxy-2-methylpropanoic Acid]	46 nM
Cc1c(/C=C/c2cc(CNC(C)(CO)C(=O)O)ccc2C(F)(F)F)cccc1-c1ccccc1 (stereo not drawn) [Compound 5, (E)-2-(3-(2-(2-methylbiphenyl-3-yl)vinyl)-4-(trifluoromethyl)benzylamino)-3-hydroxy-2-methylpropanoic Acid]	23 nM
Cc1c(/C=C/c2cc(CNC(C)(CO)C(=O)O)ccc2C(F)(F)F)cccc1-c1ccc(F)cc1 (stereo not drawn) [Compound 6, (E)-2-(3-(2-(4′-fluoro-2-methylbiphenyl-3-yl)vinyl)-4-(trifluoromethyl)benzylamino)-3-hydroxy-2-methylpropanoic Acid]	320 nM
Cc1ccc(CNC(C)(CO)C(=O)O)cc1/C=C/c1cccc(-c2ccc(F)cc2)c1C (stereo not drawn) [Compound 7, (E)-2-(3-(2-(4′-fluoro-2-methylbiphenyl-3-yl)vinyl)-4-methylbenzylamino)-3-hydroxy-2-methylpropanoic Acid]	1400 nM
Cc1ccc(CNC(C)(CO)C(=O)O)cc1/C=C/c1cccc(-c2ccccc2)c1C (stereo not drawn) [Compound 8, (E)-2-(3-(2-(2-methylbiphenyl-3-yl)vinyl)-4-methylbenzylamino)-3-hydroxy-2-methylpropanoic Acid]	42 nM
Cc1ccc(CNC(C)(CO)C(=O)O)cc1/C=C/c1cccc(-c2cccc(F)c2)c1C (stereo not drawn) [Compound 9]	57 nM
Cc1c(/C=C/c2cc(CNC(CO)C(=O)O)ccc2F)cccc1-c1ccc2c(c1)OCCO2 (stereo not drawn) [Compound 12, (E)-2-(3-(3-(2,3-dihydrobenzo[b][1,4]dioxin-6-yl)-2-methylstyryl)-4-fluorobenzylamino)-3-hydroxypropanoic Acid]	24 nM
Cc1ccc(CN[C@@H](CO)C(=O)O)cc1/C=C/c1cccc(-c2ccc3c(c2F)OCCO3)c1C [Compound 14, (S,E)-2-(3-(3-(5-fluoro-2,3-dihydrobenzo[b][1,4]dioxin-6-yl)-2-methylstyryl)-4-methylbenzylamino)-3-hydroxypropanoic Acid]	19 nM
Cc1c(/C=C/c2cc(CNC(CO)C(=O)O)ccc2C(F)(F)F)cccc1-c1cccc(F)c1F (stereo not drawn) [Compound 15, (E)-2-(3-(2-(2′,3′-difluoro-2-methylbiphenyl-3-yl)vinyl)-4-(trifluoromethyl)benzylamino)-3-hydroxypropanoic Acid]	14 nM
Cc1c(/C=C/c2cc(CN[C@@H](CO)C(=O)O)ccc2C(F)(F)F)cccc1-c1ccc2c(c1F)OCCO2 [Compound 16]	13 nM
Cc1c(/C=C/c2cc(CNC(C)(CO)C(=O)O)ccc2C(F)(F)F)cccc1-c1ccccc1F (stereo not drawn) [Compound 17, (E)-2-(3-(2-(2′-fluoro-2-methylbiphenyl-3-yl)vinyl)-4-(trifluoromethyl)benzylamino)-3-hydroxy-2-methylpropanoic Acid]	20 nM
Cc1c(CCc2cc(CNC(CO)C(=O)O)ccc2C(F)(F)F)cccc1-c1ccccc1 (stereo not drawn) [Compound 18, 2-(3-(2-(2-Methylbiphenyl-3-yl)ethyl)-4-(trifluoromethyl)benzylamino)-3-hydroxypropanoic Acid]	46 nM
Cc1c(/C=C/c2cc(CNC(CO)(CO)C(=O)O)ccc2C(F)(F)F)cccc1-c1ccccc1 [Compound 19, (E)-2-(3-(2-(2-methylbiphenyl-3-yl)vinyl)-4-(trifluoromethyl)benzylamino)-3-hydroxy-2-hydroxymethylpropanoic Acid]	61 nM
Cc1c(/C=C/c2cc(CNC(C)(CO)C(=O)O)ccc2C(F)(F)F)cccc1-c1ccc2c(c1F)OCCO2 (stereo not drawn) [Compound 20, (E)-2-(3-(3-(5-fluoro-2,3-dihydrobenzo[b][1,4]dioxin-6-yl)-2-methylstyryl)-4-(trifluoromethyl)benzylamino)-3-hydroxy-2-methylpropanoic Acid]	18 nM
Cc1c(CCc2cc(CNC(C)(CO)C(=O)O)ccc2C(F)(F)F)cccc1-c1ccccc1 (stereo not drawn) [Compound 21, 2-(3-(2-(2-Methylbiphenyl-3-yl)ethyl)-4-(trifluoromethyl)benzylamino)-3-hydroxy-2-methylpropanoic Acid]	85 nM

SMILES	IC50
Cc1c(CCc2cc(CNC(C)C(=O)O)ccc2C(F)(F)F)cccc1-c1ccccc1 (stereo not drawn) [Compound 22, 2-(3-(2-(2-Methylbiphenyl-3-yl)ethyl)-4-(trifluoromethyl)benzylamino) propanoic Acid]	44 nM
Cc1c(/C=C/c2cc(CNC(C)(CO)C(=O)O)ccc2C(F)(F)F)cccc1-c1cccc(F)c1F (stereo not drawn) [Compound 23, (E)-2-(3-(2-(2′,3′-difluoro-2-methylbiphenyl-3-yl)vinyl)-4-(trifluoromethyl)benzylamino)-3-hydroxy-2-methylpropanoic Acid]	26 nM
Cc1c(/C=C/c2cc(CNC(C)(CO)C(=O)O)cc3c2OCC3)cccc1-c1ccc2c(c1)OCCO2 (stereo not drawn) [Compound 24, (E)-2-((7-(3-(2,3-dihydrobenzo[b][1,4]dioxin-6-yl)-2-methylstyryl)-2,3-dihydrobenzofuran-5-yl)methylamino)-3-hydroxy-2-methylpropanoic Acid]	430 nM
Cc1c(/C=C/c2cc(CNC(C)(CO)C(=O)O)ccc2F)cccc1-c1ccc2c(c1)OCCO2 (stereo not drawn) [Compound 25, (E)-2-(3-(3-(2,3-dihydrobenzo[b][1,4]dioxin-6-yl)-2-methylstyryl)-4-fluorobenzylamino)-3-hydroxy-2-methylpropanoic Acid]	66 nM
Cc1ccc(CN[C@@](C)(CO)C(=O)O)cc1/C=C/c1cccc(-c2ccc3c(c2F)OCCO3)c1C [Compound 26, (S,E)-2-(3-(3-(5-fluoro-2,3-dihydrobenzo[b][1,4]dioxin-6-yl)-2-methylstyryl)-4-methylbenzylamino)-3-hydroxy-2-methylpropanoic Acid]	20 nM
Cc1ccc(CN[C@@](C)(CO)C(=O)O)cc1/C=C/c1cccc(-c2ccccc2)c1C [Compound 28, (S,E)-2-(3-(2-(2-methylbiphenyl-3-yl)vinyl)-4-methylbenzylamino)-3-hydroxy-2-methylpropanoic Acid]	29 nM
Cc1ccc(CN[C@@](C)(CO)C(=O)O)cc1/C=C/c1cccc(-c2ccc3c(c2F)OCCO3)c1C [Compound 30, (S,E)-2-(3-(3-(5-fluoro-2,3-dihydrobenzo[b][1,4]dioxin-6-yl)-2-methylstyryl)-4-methylbenzylamino)-3-hydroxy-2-methylpropanoic Acid]	27 nM
Cc1ccc(CN[C@@](C)(CO)C(=O)O)cc1/C=C/c1cccc(-c2ccccc2)c1C [Compound 31, (S,E)-2-(3-(2-(2-methylbiphenyl-3-yl)vinyl)-4-methylbenzylamino)-3-hydroxy-2-methylpropanoic Acid]	41 nM
Cc1c(/C=C/c2cc(C(C)NCC(=O)O)ccc2C(F)(F)F)cccc1-c1ccccc1 (stereo not drawn) [Compound 32, (E)-2-(1-(3-(2-(2-methylbiphenyl-3-yl)vinyl)-4-(trifluoromethyl)phenyl)ethylamino)acetic Acid]	24 nM
C[C@@](CO)(NCc1ccc(C(F)(F)F)c(/C=C/c2cccc(-c3ccccc3)c2F)c1)C(=O)O [Compound 33, (S,E)-2-(3-(2-(2-fluorobiphenyl-3-yl)vinyl)-4-(trifluoromethyl)benzylamino)-3-hydroxy-2-methylpropanoic Acid]	230 nM
C[C@](CO)(NCc1ccc(C(F)(F)F)c(/C=C/c2cccc(-c3ccccc3)c2F)c1)C(=O)O [Compound 34, (R,E)-2-(3-(2-(2-fluorobiphenyl-3-yl)vinyl)-4-(trifluoromethyl)benzylamino)-3-hydroxy-2-methylpropanoic Acid]	180 nM
Cc1c(/C=C/c2cc(CN[C@@](C)(CO)C(=O)O)ccc2C(F)(F)F)cccc1-c1ccc2ncoc2c1 [Compound 35, (S,E)-2-(3-(3-(benzo[d]oxazol-6-yl)-2-methylstyryl)-4-(trifluoromethyl)benzylamino)-3-hydroxy-2-methylpropanoic Acid]	1100 nM
Cc1c(/C=C/c2cc(CN[C@@](C)(CO)C(=O)O)ccc2C(F)(F)F)cccc1-c1ccc2nccn2c1 [Compound 36]	> 10000 nM
Cc1c(/C=C/c2cc(CN[C@@](C)(CO)C(=O)O)ccc2C(F)(F)F)cccc1-c1cn2ccnc2cn1 [Compound 37]	1300 nM
Cc1c(/C=C/c2cc(CN[C@@](C)(CO)C(=O)O)ccc2C(F)(F)F)cccc1-c1ccc2cnoc2c1 [Compound 38, (S,E)-2-(3-(3-(benzo[d]isoxazol-6-yl)-2-methylstyryl)-4-(trifluoromethyl)benzylamino)-3-hydroxy-2-methylpropanoic Acid]	> 10000 nM
Cc1c(/C=C/c2cc(CN[C@@](C)(CO)C(=O)O)ccc2C(F)(F)F)cccc1-c1ccccn1 [Compound 39, (S,E)-3-hydroxy-2-methyl-2-(3-(2-methyl-3-(pyridin-2-yl)styryl)-4-(trifluoromethyl)benzylamino)propanoic Acid]	2200 nM
